Patent US20240335429A1, “MOLECULAR GLUE AND SALL4 DEGRADER” (National University of Singapore, priority 2021, published 2024)

Key:
SNU-398 cells = experiment: CellTiter-Glo viability assay, SNU-398; assay type: cell-based, human; details: CellTiter-Glo
Protocol: Cells were plated in RPMI culture media (40 μL) in 384-well white, flat-bottom plates (Corning) and incubated at 37° C. in a humidified atmosphere of 5% CO2 overnight. The numbers of cells per well were 1,500 for SNU-398 and SNU-182, 750 for SNU-387, SNU-449, SNU-475 and SNU-423, and 1,000 for H661 and H1299. After overnight incubation, 10 μL of drug (1% DMSO in RPMI) at designed concentrations were added to the cells. The cells were then incubated for 16, 24, 48, 72, or 96 h at 37° C. in a humidified atmosphere of 5% CO2 before CellTiter-Glo reagent (10 μL) was dispensed to the wells. The cells were incubated at room temperature for a minimum of 10 min. After that, luminescence readings were recorded by a Microplate Reader (PHERAstar or Tecan Infinite M200 Pro) according to the manufacturer's instruction for measuring the luminescence.

[1] = molecular target: T1, SALL4B-Nluc in H1299 cells (Homo sapiens, UniProt Q96SW2+Q9UJQ4); experiment: Dual-luciferase SALL4B reporter cellular assay (main screen), Nluc/Fluc ratio; assay type: cell-based; details: NCI-H1299, read-out: maximum degradation (Dmax) of SALL4B_Nluc
T1 construct: expressed in transfected cells
T1 sequence (Q9UJQ4 1-616 isoform Q9UJQ4-2): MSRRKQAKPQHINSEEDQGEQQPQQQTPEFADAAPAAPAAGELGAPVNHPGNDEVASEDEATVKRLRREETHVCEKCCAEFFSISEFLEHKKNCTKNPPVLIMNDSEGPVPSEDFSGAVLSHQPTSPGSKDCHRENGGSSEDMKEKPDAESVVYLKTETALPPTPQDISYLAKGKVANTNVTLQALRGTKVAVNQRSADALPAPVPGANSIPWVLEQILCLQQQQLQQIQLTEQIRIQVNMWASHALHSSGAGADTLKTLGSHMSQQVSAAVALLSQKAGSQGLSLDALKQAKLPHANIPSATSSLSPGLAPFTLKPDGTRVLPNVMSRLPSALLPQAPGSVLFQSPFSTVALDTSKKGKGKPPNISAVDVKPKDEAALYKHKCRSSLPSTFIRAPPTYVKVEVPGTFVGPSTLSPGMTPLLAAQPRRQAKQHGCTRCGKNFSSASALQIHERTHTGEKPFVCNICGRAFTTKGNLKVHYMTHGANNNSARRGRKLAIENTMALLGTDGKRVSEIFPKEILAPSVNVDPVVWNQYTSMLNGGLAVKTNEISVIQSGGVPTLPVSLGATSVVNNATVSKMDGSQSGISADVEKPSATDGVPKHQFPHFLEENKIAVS
T1 sequence (Q96SW2 whole entry): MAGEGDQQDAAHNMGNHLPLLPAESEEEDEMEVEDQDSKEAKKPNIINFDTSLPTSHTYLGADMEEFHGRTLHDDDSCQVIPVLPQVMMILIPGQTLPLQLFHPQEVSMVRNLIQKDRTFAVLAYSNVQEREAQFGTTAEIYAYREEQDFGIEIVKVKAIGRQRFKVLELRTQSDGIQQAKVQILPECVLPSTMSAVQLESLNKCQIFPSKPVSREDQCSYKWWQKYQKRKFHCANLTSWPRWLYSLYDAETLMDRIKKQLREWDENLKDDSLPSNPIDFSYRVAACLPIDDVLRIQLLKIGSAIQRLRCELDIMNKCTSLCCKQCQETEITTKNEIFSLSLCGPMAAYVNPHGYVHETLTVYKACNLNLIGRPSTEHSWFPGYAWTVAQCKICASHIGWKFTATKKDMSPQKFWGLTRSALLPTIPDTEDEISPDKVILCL
T1 sequence (Q16531 whole entry partner): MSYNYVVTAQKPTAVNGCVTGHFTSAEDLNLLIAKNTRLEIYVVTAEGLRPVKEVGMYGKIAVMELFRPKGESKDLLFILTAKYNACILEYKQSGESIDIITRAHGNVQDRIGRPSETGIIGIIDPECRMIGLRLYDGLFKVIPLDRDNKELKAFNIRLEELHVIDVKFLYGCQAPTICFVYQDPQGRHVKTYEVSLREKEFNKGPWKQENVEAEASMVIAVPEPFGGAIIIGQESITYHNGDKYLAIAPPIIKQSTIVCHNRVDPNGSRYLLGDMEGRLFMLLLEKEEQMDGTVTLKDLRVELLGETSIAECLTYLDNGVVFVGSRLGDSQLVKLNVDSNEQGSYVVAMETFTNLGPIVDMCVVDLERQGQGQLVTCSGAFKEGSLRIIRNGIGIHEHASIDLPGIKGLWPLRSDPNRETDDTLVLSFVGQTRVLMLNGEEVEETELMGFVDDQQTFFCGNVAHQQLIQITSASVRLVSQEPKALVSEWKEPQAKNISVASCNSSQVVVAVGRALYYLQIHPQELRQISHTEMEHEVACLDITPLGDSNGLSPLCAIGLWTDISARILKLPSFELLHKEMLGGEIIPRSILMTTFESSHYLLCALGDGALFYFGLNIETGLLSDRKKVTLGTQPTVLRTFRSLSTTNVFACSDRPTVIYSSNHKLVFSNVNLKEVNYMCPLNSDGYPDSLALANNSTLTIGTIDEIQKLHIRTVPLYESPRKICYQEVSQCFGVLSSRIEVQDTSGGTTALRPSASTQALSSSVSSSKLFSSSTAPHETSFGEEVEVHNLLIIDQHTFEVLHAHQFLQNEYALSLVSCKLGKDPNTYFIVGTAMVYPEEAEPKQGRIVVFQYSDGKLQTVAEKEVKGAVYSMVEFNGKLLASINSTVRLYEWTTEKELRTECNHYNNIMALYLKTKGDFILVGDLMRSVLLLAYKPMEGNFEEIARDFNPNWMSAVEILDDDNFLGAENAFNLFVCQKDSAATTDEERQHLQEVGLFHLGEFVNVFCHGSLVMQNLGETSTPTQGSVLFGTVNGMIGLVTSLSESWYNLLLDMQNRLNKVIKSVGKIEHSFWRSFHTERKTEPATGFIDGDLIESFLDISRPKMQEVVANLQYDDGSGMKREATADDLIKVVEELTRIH
Excerpt: (§1) SALL4A or SALL4B was cloned into the dual-luciferase plasmid (pLL3.7-EF1a-IRES-Gateway-nluc-2xHA-IRES2-fluc-hCL1-P2A-Puro from Prof. William G. Kaelin group) to create a stable cell line (H1299, SALL4 negative) that ectopically express the SALL4A or B-NanoLuc fusion protein. SALL4A or B fused to nanoluciferase (Nluc) was expressed in a multicistronic mRNA with control firefly luciferase (Fluc). The measurement of Nluc/Fluc ratio enabled the determination of SALL4 fusion protein degradation relative to the internal Fluc control, independent of effects on transcription (FIG. 1A-B).
The assay was performed as described in Example 1 except in a 1,536-well plate which allows HTS of thermal shift hits from the primary screen, searching for SALL4 small molecule binders that can degrade the oncogenic SALL4B isoform. H1299 cells that stably express SALL4A/B_Nluc_Fluc were seeded in a 1,536-well clear bottom white plate (Corning) at 2,000 cells per well in RPMI medium (6 μL) and grown overnight (16 h) at 37° C., 5% CO2. Cells were treated with 8 μM of compounds for 6 h. Nano-Glo® Dual-Luciferase® Reporter Assay System and Pherastar plate reader were used for measuring the luciferase signal, following the manufacturer's instruction. For data analysis, the Nanoluc luminescence is normalized to firefly luciferase reading and then compared to the DMSO control. The screen was performed in triplicates.
The inventors treated H1299 cells overexpressing SALL4B_Nluc and the HCC (SNU-398, SNU-182) and NSCLC cells (H661) with increasing concentrations of QE-18-WG07 and IMiDs, and assayed the SALL4B_Nluc, as well as the endogenous SALL4A and B levels by immunoblots described in Example 4.

[2] = molecular target: SALL4A-Nluc in H1299 cells (Homo sapiens, UniProt Q96SW2+Q9UJQ4); details: 10 μM, H1299 cells overexpressing SALL4A-nanoluc
Sequence of SALL4A-Nluc in H1299 cells (Q96SW2 whole entry): as the sequence (Q96SW2 whole entry) above
Sequence of SALL4A-Nluc in H1299 cells (Q16531 whole entry, further chain): as the sequence (Q16531 whole entry partner) above
Sequence of SALL4A-Nluc in H1299 cells (Q9UJQ4 whole entry): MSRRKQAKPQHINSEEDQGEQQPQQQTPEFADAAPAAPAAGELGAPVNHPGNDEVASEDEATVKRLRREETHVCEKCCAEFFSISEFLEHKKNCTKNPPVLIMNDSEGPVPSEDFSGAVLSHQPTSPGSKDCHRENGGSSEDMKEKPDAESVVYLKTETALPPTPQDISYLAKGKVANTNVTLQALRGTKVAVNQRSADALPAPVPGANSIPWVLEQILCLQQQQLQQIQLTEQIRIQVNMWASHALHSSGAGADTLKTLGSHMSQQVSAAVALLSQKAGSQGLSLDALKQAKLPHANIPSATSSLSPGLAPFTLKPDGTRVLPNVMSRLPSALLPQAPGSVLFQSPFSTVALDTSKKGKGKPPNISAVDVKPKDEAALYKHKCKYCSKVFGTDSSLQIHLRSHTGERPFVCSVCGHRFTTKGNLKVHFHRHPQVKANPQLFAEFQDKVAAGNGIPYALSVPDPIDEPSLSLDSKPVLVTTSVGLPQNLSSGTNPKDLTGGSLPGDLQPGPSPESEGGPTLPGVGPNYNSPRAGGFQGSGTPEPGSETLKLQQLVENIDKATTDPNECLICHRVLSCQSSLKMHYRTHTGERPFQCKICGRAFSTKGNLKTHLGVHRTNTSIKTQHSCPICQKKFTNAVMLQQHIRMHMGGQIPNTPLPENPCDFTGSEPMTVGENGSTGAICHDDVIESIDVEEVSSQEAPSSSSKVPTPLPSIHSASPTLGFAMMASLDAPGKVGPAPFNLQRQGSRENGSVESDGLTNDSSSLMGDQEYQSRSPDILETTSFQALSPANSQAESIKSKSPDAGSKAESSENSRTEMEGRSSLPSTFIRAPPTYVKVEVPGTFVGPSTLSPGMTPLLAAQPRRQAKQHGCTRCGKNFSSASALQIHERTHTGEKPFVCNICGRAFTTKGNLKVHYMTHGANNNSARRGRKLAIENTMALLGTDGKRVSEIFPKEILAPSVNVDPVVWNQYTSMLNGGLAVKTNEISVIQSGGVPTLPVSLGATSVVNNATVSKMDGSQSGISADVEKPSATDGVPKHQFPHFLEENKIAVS
Excerpt: as §1

cleaved PARP = experiment: Immunoblot of cleaved PARP (apoptotic marker) in SNU-398 cells; assay type: cell-based, human; details: SNU-398 HCC cells, 24 h
Protocol: (§2) RIPA buffer containing freshly added protease inhibitors (2 mM PMSF) and protease inhibitor cocktail was used for cell lysis. The lysed cells were incubated for 10 min on ice and subsequently centrifuged at 4° C. for 10 min at 14,000 rpm. The protein concentrations of cell lysates were assessed using Bradford Assay as per manufacturer's instructions. The samples were denatured using 4× Sample buffer at 95° C. for 5 min. The samples were size resolved using polyacrylamide gel (8%) and Mini-PROTEAN Tetra Cell module. The size-resolved proteins were transferred onto PVDF via electroblotting using Mini Trans-Blot® module. The membrane was blocked using 5% BSA in TBST. The membrane was incubated with appropriate primary antibody (overnight) and secondary antibody (1 h). Immobilon Crescendo Western HRP substrate was used for signal development and images were acquired using darkroom development techniques.

c-myc = experiment: Immunoblot of c-myc (SALL4 downstream target) in SNU-398 cells; assay type: cell-based, human; details: SNU-398 HCC cells, 24 h
Protocol: as §2

IKZF3 = molecular target: T2, IKZF3 (Homo sapiens, UniProt Q9UKT9); experiment: Immunoblot of IKZF3 in SNU-398 HCC cells; assay type: cell-based; details: SNU-398 cells
T2 construct: with immunoblots in SNU-398 HCC cells; endogenous in cells; host or cells: SNU-398 HCC cells
T2 sequence (Q9UKT9 whole entry): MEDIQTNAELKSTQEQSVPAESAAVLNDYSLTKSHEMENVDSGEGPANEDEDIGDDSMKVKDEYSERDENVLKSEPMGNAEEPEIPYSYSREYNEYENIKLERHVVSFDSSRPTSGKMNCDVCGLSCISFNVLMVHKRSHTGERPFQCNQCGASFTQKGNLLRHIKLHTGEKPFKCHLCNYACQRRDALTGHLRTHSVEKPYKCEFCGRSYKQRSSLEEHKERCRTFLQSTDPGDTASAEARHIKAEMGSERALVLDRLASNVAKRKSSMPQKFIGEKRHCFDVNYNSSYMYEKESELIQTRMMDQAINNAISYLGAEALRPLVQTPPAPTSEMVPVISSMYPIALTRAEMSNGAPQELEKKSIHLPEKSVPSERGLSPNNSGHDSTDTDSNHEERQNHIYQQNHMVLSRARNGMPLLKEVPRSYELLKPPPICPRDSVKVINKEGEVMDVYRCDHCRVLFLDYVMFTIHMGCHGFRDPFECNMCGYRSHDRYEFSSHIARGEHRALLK
Protocol: as §2

IKZF1 = molecular target: T3, IKZF1 (Homo sapiens, UniProt Q13422); experiment: Immunoblot of IKZF1 in SNU-398 HCC cells; assay type: cell-based; details: SNU-398 cells
T3 construct: with immunoblots in SNU-398 HCC cells; endogenous in cells; host or cells: SNU-398 HCC cells
T3 sequence (Q13422 whole entry): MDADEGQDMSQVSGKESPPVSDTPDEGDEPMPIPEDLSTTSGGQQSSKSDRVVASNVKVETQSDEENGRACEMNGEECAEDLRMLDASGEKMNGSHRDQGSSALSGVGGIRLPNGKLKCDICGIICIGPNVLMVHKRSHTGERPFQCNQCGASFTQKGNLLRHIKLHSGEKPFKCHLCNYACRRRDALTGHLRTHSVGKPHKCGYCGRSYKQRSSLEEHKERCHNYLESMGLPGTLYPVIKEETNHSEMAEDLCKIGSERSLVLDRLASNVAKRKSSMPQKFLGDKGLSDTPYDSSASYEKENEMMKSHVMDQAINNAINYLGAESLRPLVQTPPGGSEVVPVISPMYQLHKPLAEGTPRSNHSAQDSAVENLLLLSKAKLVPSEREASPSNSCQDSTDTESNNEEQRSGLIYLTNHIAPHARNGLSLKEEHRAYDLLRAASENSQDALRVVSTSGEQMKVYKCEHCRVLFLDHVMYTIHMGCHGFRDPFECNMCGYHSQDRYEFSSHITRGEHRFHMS
Protocol: as §2

Dmax [1] [%] | time at which inhibition of SALL4A-Nluc signal became saturated [2] [h] | Dmax (IKZF3) [%] | Dmax (IKZF1) [%] | Compound | effect on SNU-398 cell growth (SNU-398 cells) | cleavage of PARP (apoptosis induction) (cleaved PARP) | effect on the level of c-myc (c-myc)
17 | 8 |  |  | Nc1cccc2c1C(=O)N(C1CCC(=O)NC1=O)C2=O (stereo not drawn) [Pomalidomide, reference compound] | did not result in any antiproliferative consequences |  | 
17 |  | 39 | 64 | O=C1CCC(N2C(=O)c3ccccc3C2=O)C(=O)N1 (stereo not drawn) [Thalidomide, reference compound] | did not result in any antiproliferative consequences | no cleavage of PARP observed | did not affect
